Measured values published in publication PMC10563396, “Anti-Inflammatory Role of TRPV4 in Human Macrophages” (ImmunoHorizons, 2023).

Biological target: TRPV4 (Homo sapiens, UniProt Q9HBA0)
Assay: fura […] Ca2+ imaging dose response in human primary monocyte-derived macrophages (endogenous TRPV4); response reduced by TRPV4 siRNA knockdown; EC50 […] (GM-CSF) and […] (M-CSF)
Format: cell-based

TRPV4, sequence (Q9HBA0 whole entry): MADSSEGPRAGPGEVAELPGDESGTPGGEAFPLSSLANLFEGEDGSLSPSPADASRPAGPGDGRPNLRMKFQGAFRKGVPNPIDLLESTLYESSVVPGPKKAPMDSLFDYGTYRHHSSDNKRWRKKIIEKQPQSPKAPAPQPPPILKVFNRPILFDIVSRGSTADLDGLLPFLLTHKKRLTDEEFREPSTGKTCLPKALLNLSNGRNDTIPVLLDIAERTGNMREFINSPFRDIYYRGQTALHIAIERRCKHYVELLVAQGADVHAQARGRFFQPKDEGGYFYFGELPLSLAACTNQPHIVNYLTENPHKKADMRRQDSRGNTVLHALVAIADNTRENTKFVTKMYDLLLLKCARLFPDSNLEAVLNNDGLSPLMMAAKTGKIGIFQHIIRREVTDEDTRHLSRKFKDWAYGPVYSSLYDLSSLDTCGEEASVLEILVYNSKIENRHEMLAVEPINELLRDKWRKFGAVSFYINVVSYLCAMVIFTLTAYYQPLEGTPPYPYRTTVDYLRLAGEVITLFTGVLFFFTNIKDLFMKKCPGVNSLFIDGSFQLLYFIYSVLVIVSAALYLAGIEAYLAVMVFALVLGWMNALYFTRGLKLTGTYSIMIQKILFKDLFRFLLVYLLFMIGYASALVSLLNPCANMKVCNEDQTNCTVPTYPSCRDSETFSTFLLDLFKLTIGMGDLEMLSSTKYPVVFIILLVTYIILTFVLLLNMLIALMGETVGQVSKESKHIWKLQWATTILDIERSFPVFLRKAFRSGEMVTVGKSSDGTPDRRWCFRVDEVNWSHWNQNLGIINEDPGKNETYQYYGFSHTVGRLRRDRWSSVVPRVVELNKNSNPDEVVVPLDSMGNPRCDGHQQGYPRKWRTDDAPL

## CC(C)C[C@H](NC(=O)c1cc2ccccc2s1)C(=O)N1CCN(C(=O)[C@H](CO)NS(=O)(=O)c2ccc(Cl)cc2Cl)CC1 [GSK1016790A]
  EC50: 0.58 µM
